Test results from publication PMC3530927 (Journal of medicinal chemistry, 2012).

Tests used:
[1] = Snapshot in vivo PK, IP plasma and brain levels; details: brain, 10 mg/kg
Intrinsic clearance = assay type: in vitro ADME; details: rat hepatic microsomes
potassium channel (KATP) = assay: Ricerca Lead Profiling Screen radioligand binding
calcium channel, N-type = calcium channel, N-type (Homo sapiens, UniProt Q00975); assay: Ricerca Lead Profiling Screen radioligand binding
potassium channel (hERG) = potassium channel (hERG) (Homo sapiens, UniProt Q12809); assay: Ricerca Lead Profiling Screen radioligand binding
potassium channel (hERG), sequence (Q12809 whole entry): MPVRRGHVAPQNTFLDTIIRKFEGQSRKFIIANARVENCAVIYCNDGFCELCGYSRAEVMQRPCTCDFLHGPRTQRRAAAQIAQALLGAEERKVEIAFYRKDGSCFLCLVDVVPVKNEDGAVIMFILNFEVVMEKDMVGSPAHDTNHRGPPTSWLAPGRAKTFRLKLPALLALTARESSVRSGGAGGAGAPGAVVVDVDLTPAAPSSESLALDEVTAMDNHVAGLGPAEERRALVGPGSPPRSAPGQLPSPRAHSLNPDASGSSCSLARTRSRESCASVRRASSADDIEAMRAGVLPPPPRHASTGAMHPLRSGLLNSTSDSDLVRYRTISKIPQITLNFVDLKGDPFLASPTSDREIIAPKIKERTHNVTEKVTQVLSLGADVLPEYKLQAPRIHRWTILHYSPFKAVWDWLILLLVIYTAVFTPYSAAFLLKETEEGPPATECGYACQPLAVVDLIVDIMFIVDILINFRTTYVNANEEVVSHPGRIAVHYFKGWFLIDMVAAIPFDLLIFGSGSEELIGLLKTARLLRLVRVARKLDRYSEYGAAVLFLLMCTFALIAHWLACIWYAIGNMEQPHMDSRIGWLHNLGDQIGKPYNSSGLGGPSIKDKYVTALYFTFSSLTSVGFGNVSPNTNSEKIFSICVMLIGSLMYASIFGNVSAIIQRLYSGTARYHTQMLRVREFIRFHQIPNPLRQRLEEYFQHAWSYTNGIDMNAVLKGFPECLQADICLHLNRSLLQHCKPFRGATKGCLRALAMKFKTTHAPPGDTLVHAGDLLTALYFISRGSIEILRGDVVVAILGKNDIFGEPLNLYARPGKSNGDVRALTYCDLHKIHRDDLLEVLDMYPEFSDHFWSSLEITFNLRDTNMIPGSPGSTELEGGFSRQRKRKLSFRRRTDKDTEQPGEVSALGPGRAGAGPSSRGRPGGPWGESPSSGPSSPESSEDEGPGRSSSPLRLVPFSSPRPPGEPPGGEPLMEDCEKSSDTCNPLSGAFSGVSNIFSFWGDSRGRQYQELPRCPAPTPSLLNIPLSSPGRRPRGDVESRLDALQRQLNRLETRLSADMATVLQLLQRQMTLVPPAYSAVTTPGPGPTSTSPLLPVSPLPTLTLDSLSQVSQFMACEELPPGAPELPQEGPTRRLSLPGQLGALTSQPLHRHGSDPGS

calcium channel, L-type = assay: Ricerca Lead Profiling Screen radioligand binding
KCNQ2 channels = KCNQ2 channels (Homo sapiens, UniProt O43526); assay: KCNQ2 automated patch clamp assay; assay type: cell-based; details: for inhibition at 30 µM: read-out: KCNQ2 % at 30 μM (IC50 column, saturating response not obtained); for fold loss of potency: KCNQ2 inhibitor, compared to the unsubstituted phenyl group (5)
[2] = >300 assays performed within the MLPCN network; details: weakly active in each of four assays out of >300
[3] = KCNQ2, common assay system (PubChem AID: 588426) vs reported values

calcium channel, N-type, sequence (Q00975 whole entry): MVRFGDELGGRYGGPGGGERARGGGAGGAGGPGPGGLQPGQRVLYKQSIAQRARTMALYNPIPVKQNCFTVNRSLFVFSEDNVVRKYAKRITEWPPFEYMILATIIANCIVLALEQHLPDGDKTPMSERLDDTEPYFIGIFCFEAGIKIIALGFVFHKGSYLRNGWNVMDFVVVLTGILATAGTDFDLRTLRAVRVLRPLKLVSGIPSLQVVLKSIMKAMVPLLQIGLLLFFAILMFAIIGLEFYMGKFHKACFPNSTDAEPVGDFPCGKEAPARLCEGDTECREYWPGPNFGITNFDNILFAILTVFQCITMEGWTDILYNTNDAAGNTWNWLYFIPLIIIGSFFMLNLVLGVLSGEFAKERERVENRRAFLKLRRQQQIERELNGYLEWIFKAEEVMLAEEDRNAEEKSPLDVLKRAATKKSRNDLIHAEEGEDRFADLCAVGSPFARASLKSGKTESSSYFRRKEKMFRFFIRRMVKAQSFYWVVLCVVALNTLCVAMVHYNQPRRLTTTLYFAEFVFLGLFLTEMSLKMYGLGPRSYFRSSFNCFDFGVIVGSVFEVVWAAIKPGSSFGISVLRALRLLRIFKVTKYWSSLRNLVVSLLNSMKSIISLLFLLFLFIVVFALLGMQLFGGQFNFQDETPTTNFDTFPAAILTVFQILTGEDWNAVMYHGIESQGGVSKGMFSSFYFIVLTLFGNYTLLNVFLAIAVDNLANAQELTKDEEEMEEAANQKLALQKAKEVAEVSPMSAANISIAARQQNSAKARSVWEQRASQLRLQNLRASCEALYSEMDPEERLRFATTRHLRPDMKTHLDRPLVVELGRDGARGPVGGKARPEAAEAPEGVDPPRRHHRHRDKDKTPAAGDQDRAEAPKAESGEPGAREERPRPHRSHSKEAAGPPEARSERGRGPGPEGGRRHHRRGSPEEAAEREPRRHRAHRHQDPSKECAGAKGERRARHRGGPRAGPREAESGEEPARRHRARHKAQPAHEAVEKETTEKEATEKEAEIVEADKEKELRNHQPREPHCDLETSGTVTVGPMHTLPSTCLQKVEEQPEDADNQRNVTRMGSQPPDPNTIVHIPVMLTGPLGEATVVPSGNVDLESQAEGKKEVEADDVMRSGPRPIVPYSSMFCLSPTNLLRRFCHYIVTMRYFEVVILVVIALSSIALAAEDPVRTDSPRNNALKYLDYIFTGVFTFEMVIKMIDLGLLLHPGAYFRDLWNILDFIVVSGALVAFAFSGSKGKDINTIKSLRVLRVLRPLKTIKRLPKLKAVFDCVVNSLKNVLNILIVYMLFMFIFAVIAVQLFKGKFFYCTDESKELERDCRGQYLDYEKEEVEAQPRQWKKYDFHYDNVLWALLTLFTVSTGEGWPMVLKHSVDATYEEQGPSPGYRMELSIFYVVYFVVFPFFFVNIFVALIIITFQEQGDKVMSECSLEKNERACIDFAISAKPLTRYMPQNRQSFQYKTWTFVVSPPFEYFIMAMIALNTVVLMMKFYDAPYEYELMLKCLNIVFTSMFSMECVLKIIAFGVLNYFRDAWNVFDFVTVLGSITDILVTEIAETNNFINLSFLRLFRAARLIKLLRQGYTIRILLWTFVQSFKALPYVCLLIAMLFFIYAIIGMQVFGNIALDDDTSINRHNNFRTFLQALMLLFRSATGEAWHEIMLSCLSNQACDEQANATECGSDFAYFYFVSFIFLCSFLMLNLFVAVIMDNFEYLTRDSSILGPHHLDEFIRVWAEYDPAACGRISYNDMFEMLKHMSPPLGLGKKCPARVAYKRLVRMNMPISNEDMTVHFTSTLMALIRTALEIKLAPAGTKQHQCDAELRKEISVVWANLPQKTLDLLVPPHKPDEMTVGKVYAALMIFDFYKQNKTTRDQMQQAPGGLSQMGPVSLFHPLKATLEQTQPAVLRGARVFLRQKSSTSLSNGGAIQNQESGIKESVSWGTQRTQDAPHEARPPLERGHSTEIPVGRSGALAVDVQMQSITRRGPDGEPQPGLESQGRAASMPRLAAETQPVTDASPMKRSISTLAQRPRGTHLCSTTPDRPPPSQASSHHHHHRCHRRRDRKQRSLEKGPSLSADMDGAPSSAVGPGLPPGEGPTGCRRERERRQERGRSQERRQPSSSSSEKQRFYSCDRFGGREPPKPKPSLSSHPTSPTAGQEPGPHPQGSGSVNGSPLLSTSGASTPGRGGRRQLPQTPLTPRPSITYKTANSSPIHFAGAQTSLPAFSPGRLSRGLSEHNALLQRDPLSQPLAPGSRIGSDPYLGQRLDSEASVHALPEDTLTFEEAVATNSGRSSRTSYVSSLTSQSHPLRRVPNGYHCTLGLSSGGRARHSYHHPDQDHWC

SMILES | KCNQ2 activity (in words) (KCNQ2 channels) | inhibition at 30 µM (KCNQ2 channels) | also measured
CC[C@H](C(=O)Nc1ccccc1N1CCCC1)c1ccccc1 [(S)-5, (S)-2-Phenyl-N-(2-(pyrrolidin-1-yl)phenyl)butanamide] |  |  | concentration at 1 h [1]: 672 nM; Rat CLHEP (Intrinsic clearance): 67.3 mL/min/kg; potassium channel KATP binding (in words) (potassium channel (KATP)): not inhibited; calcium channel N-type binding (in words) (calcium channel, N-type): not inhibited; potassium channel hERG binding (in words) (potassium channel (hERG)): not inhibited; calcium channel L-type binding (in words) (calcium channel, L-type): not inhibited
O=C1c2ccccc2C(Cc2ccncc2)(Cc2ccncc2)c2ccccc21 [compound 1, XE-991, reference compound] |  |  | fold more potent compared to previous values (KCNQ2 channels; [3]): 8 – 10 fold
O=C1N(c2ccccc2)c2ccccc2C1(Cc1ccncc1)Cc1ccncc1 [compound 2, Linopirdine, reference compound] |  |  | fold more potent compared to previous values (KCNQ2 channels; [3]): 8 – 10 fold
c1ccc(C(NCc2cccnc2)(c2ccccc2)c2ccccc2)cc1 [compound 3, UCL2077, reference compound] |  |  | fold less potent compared to previous values (KCNQ2 channels; [3]): ~ 7 fold
CCC(C(=O)Nc1ccccc1N1CCCC1)c1ccccc1 (stereo not drawn) [compound 5] |  |  | activity in four MLPCN assays not dependent on KCNQ2 [2]: > 15 µM
CC(C)C(C(=O)Nc1ccccc1N1CCCC1)c1ccccc1 (stereo not drawn) [compound 9] | not tolerated | 25.4% | 
O=C(Nc1ccccc1N1CCCC1)C1(c2ccccc2)CC1 [compound 14] | not tolerated |  | 
CC(C)(C(=O)Nc1ccccc1N1CCCC1)c1ccccc1 [compound 15] | not tolerated |  | 
O=C(Nc1ccccc1N1CCCC1)C1CCOc2ccccc21 (stereo not drawn) [compound 16] | not tolerated |  | 
CCC(NC(=O)c1ccccc1N1CCCC1)c1ccccc1 (stereo not drawn) [compound 17] | complete loss of activity | 38% | 
CCC(C(=O)N(C)c1ccccc1N1CCCC1)c1ccccc1 (stereo not drawn) [compound 18] | complete loss of activity |  | 
CCC(C(=O)Nc1ccccc1N1CCCC1)c1ccc(OC)c(OC)c1 (stereo not drawn) [compound 19] |  |  | fold loss of potency (KCNQ2 channels): 125 fold
CCC(C(=O)Nc1ccccc1N1CCCC1)c1ccccc1Cl (stereo not drawn) [compound 30] |  |  | fold loss of potency (KCNQ2 channels): 20 fold
O=C(Cc1cccc(Cl)c1)Nc1cccc(N2CCCC2)c1 [compound 45] |  |  | fold loss of activity (KCNQ2 channels; KCNQ2 activator series, 3-pyrrolidine vs 2-pyrrolidine): ~ 5 fold
CCC(C(=O)Nc1ccccc1N1CCCCC1)c1ccccc1 (stereo not drawn) [compound 48] | loss of activity | 32% | 
O=C(Cc1cccc(Cl)c1)Nc1ccccc1N1CCCCC1 [compound 49] | loss of activity |  | 
CCC(C(=O)Nc1ccccc1N(C)C)c1ccccc1 (stereo not drawn) [compound 56] |  | 59.8% | 
CCC(C(=O)Nc1ccccc1OC)c1ccccc1 (stereo not drawn) [compound 63] |  | 28.1% | 
CCC(C(=O)Nc1ccccc1N(C)Cc1ccccc1)c1ccccc1 (stereo not drawn) [compound 64] |  | 27.1% | 
